Measured values taken from patent publication US7579469B2, “Glucocorticoid mimetics, methods of making them, pharmaceutical compositions, and uses thereof” (Boehringer Ingelheim Pharmaceuticals, Inc., priority 2003, dated 2009).

Biological target: T1, human glucocorticoid receptor (GR) complex (Homo sapiens, UniProt P04150)
T1 construct: made in house; host or cells: insect expression system (baculovirus lysate)
T1 sequence (P04150 1-777): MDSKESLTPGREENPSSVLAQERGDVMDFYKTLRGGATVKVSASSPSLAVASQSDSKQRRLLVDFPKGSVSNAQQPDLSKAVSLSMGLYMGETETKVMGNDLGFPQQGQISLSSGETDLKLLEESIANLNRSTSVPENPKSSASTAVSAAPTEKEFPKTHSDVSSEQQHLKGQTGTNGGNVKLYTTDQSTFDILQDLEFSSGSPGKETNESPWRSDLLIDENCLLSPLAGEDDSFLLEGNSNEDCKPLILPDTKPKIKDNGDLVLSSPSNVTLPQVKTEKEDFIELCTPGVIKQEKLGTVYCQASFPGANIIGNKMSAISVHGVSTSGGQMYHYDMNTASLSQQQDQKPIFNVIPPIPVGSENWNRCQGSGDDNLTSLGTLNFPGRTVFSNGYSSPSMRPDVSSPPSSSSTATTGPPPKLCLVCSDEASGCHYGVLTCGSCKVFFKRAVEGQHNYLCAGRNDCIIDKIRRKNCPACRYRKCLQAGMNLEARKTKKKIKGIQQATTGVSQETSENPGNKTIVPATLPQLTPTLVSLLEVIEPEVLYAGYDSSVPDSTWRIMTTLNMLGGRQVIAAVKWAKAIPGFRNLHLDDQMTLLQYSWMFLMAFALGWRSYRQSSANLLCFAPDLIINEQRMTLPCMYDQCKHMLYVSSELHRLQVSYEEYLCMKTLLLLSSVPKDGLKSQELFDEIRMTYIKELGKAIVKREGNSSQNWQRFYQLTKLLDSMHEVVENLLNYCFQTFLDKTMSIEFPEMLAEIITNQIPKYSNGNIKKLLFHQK
Assay: Glucocorticoid receptor competitive binding assay (fluorescence polarization)
Conditions: competition with TAMRA-labeled dexamethasone
Experimental: Compounds of the invention were evaluated for binding to the steroid receptor by a fluorescence polarization competitive binding assay.
A. Glucocorticoid Receptor Competitive Binding Assay
Step 1. Characterization of the Fluorescent Probe
The wavelengths for maximum excitation and emission of the fluorescent probe should first be measured. An example of such a probe is rhodamine (TAMRA)-labeled dexamethasone.
The affinity of the probe for the steroid receptor was then determined in a titration experiment. The fluorescence polarization value of the probe in assay buffer was measured on an SLM-8100 fluorometer using the excitation and emission maximum values described above. Aliquots of expression vector lysate were added and fluorescence polarization was measured after each addition until no further change in polarization value was observed. Non-linear least squares regression analysis was used to calculate the dissociation constant of the probe from the polarization values obtained for lysate binding to the probe.
Step 2. Screening for Inhibitors of Probe Binding
This assay uses fluorescence polarization (FP) to quantitate the ability of test compounds to compete with tetramethyl rhodamine (TAMRA)-labeled dexamethasone for binding to a human glucocorticoid receptor (GR) complex prepared from an insect expression system. The assay buffer was: 10 mM TES, 50 mM KCl, 20 mM Na2MoO4.2H20, 1.5 mM EDTA, 0.04% w/v CHAPS, 10% v/v glycerol, 1 mM dithiothreitol, pH 7.4. Test compounds were dissolved to 1 mM in neat DMSO and then further diluted to 10× assay concentration in assay buffer supplemented with 10% v/v DMSO. Test compounds were serially diluted at 10× assay concentrations in 10% DMSO-containing buffer in 96-well polypropylene plates. Binding reaction mixtures were prepared in 96-well black Dynex microtiter plates by sequential addition of the following assay components to each well: 15 μL of 10× test compound solution, 85 μL of GR-containing baculovirus lysate diluted 1:170 in assay buffer, and 50 μL of 15 nM TAMRA-labeled dexamethasone. Positive controls were reaction mixtures containing no test compound; negative controls (blanks) were reaction mixtures containing 0.7 μM to 2 μM dexamethasone. […] IC50 values were determined by iterative non-linear curve fitting of the FP signal data to a 4-parameter logistic equation.

Activity in the GR binding assay, potent activity:
CC(C)(CC(O)(Cn1ccc(=O)c2ccccc21)C(F)(F)F)c1cc(-c2cccnc2)ccc1O (stereo not shown) [1-[2-Hydroxy-4-(2-hydroxy-5-pyridin-3-ylphenyl)-4-methyl-2-trifluoromethylpentyl]-1H-quinolin-4-one]
CC(C)(CC(O)(Cn1ccc(=O)c2ccccc21)C(F)(F)F)c1cc(-c2ccsc2)ccc1O (stereo not shown) [1-[2-Hydroxy-4-(2-hydroxy-5-thiophen-3-ylphenyl)-4-methyl-2-trifluoromethylpentyl]-1H-quinolin-4-one]
COc1ccc(C)cc1C(C)(C)CC(O)(Cn1ccc(=O)c2ccccc21)C(F)(F)F (stereo not shown) [1-[2-Hydroxy-4-(2-methoxy-5-methylphenyl)-4-methyl-2-trifluoromethylpentyl]-1H-quinolin-4-one]
COc1ccc(CN2CCOCC2)cc1C(C)(C)CC(O)(Cn1ccc(=O)c2ccccc21)C(F)(F)F (stereo not shown) [1-[2-Hydroxy-4-(2-methoxy-5-morpholin-4-ylmethylphenyl)-4-methyl-2-trifluoromethylpentyl]-1H-quinolin-4-one]
COc1ccc(-c2cccs2)cc1C(C)(C)CC(O)(Cn1ccc(=O)c2ccccc21)C(F)(F)F (stereo not shown) [1-[2-Hydroxy-4-(2-methoxy-5-thiophen-2-ylphenyl)-4-methyl-2-trifluoromethylpentyl]-1H-quinolin-4-one]
CC(C)(CC(O)(Cn1ccc(=O)c2ccccc21)C(F)(F)F)c1cccc(O)c1 (stereo not shown) [1-[2-Hydroxy-4-(3-hydroxyphenyl)-4-methyl-2-trifluoromethylpentyl]-1H-quinolin-4-one]
COc1cccc(C(C)(C)CC(O)(Cn2ccc(=O)c3ccccc32)C(F)(F)F)c1 (stereo not shown) [1-[2-Hydroxy-4-(3-methoxyphenyl)-4-methyl-2-trifluoromethylpentyl]-1H-quinolin-4-one]
CC(C)(CC(O)(Cn1ccc(=O)c2ccccc21)C(F)(F)F)c1cc(-c2ccccc2)ccc1O (stereo not shown) [1-[2-Hydroxy-4-(4-hydroxybiphenyl-3-yl)-4-methyl-2-trifluoromethylpentyl]-1H-quinolin-4-one]
COc1ccc(-c2ccccc2)cc1C(C)(C)CC(O)(Cn1ccc(=O)c2ccccc21)C(F)(F)F (stereo not shown) [1-[2-Hydroxy-4-(4-methoxybiphenyl-3-yl)-4-methyl-2-trifluoromethylpentyl]-1H-quinolin-4-one]
COc1ccc(CO)cc1C(C)(C)CC(O)(Cn1ccc(=O)c2ccccc21)C(F)(F)F (stereo not shown) [1-[2-Hydroxy-4-(5-hydroxymethyl-2-methoxyphenyl)-4-methyl-2-trifluoromethylpentyl]-1H-quinolin-4-one]
C[S+]([O-])c1cc2c(c(C(C)(C)CC(O)(Cn3ccc(=O)c4ccccc43)C(F)(F)F)c1)OCC2 (stereo not shown) [1-[2-Hydroxy-4-(5-methanesulfinyl-2,3-dihydrobenzofuran-7-yl)-4-methyl-2-trifluoromethylpentyl]-1H-quinolin-4-one]
CC(C)(CC(O)(Cn1ccc(=O)c2ncccc21)C(F)(F)F)c1cc(S(C)(=O)=O)cc2c1OCC2 (stereo not shown) [1-[2-Hydroxy-4-(5-methanesulfonyl-2,3-dihydrobenzofuran-7-yl)-4-methyl-2-trifluoromethylpentyl]-1H-[1,5]naphthyridin-4-one]
Cc1cn(CC(O)(CC(C)(C)c2cc(S(C)(=O)=O)cc3c2OCC3)C(F)(F)F)c2ccccc2c1=O (stereo not shown) [1-[2-Hydroxy-4-(5-methanesulfonyl-2,3-dihydrobenzofuran-7-yl)-4-methyl-2-trifluoromethylpentyl]-3-methyl-1H-quinolin-4-one]
CSc1cc2c(c(C(C)(C)CC(O)(Cn3ccc(=O)c4ccccc43)C(F)(F)F)c1)OCC2 (stereo not shown) [1-[2-Hydroxy-4-methyl-4-(5-methylsulfanyl-2,3-dihydrobenzofuran-7-yl)-2-trifluoromethylpentyl]-1H-quinolin-4-one]
CC1(CC(O)(Cn2ccc(=O)c3ccccc32)C(F)(F)F)CCOc2ccc(F)cc21 (stereo not shown) [1-[3,3,3-Trifluoro-2-(6-fluoro-4-methylchroman-4-ylmethyl)-2-hydroxypropyl]-1H-quinolin-4-one]
Cc1cn(CC(O)(CC(C)(C)c2cccc3c2OCC3)C(F)(F)F)c(CO)c(C)c1=O (stereo not shown) [1-[4-(2,3-Dihydrobenzofuran-7-yl)-2-hydroxy-4-methyl-2-trifluoromethylpentyl]-2-hydroxymethyl-3,5-dimethyl-1H-pyridin-4-one]
Cc1cn(CC(O)(CC(C)(C)c2cccc3c2OCC3)C(F)(F)F)c2ccccc2c1=O (stereo not shown) [1-[4-(2,3-Dihydrobenzofuran-7-yl)-2-hydroxy-4-methyl-2-trifluoromethylpentyl]-3-methyl-1H-quinolin-4-one]
CCOc1ccc(F)cc1C(C)(C)CC(O)(Cn1ccc(=O)c2ccccc21)C(F)(F)F (stereo not shown) [1-[4-(2-Ethoxy-5-fluorophenyl)-2-hydroxy-4-methyl-2-trifluoromethylpentyl]-1H-quinolin-4-one]
CC(=O)c1cccc(C(C)(C)CC(O)(Cn2ccc(=O)c3ccccc32)C(F)(F)F)c1 (stereo not shown) [1-[4-(3-Acetylphenyl)-2-hydroxy-4-methyl-2-trifluoromethylpentyl]-1H-quinolin-4-one]
CC(C)(CC(O)(Cn1ccc(=O)c2ccccc21)C(F)(F)F)c1cccc(Br)c1 (stereo not shown) [1-[4-(3-Bromophenyl)-2-hydroxy-4-methyl-2-trifluoromethylpentyl]-1H-quinolin-4-one]
CC(C)(CC(O)(Cn1ccc(=O)c2ccccc21)C(F)(F)F)c1ccc(O)c(F)c1 (stereo not shown) [1-[4-(3-Fluoro-4-hydroxyphenyl)-2-hydroxy-4-methyl-2-trifluoromethylpentyl]-1H-quinolin-4-one]
COc1ccc(C(C)(C)CC(O)(Cn2ccc(=O)c3ccccc32)C(F)(F)F)cc1F (stereo not shown) [1-[4-(3-Fluoro-4-methoxyphenyl)-2-hydroxy-4-methyl-2-trifluoromethylpentyl]-1H-quinolin-4-one]
Cc1ccc(C(C)(C)CC(O)(Cn2ccc(=O)c3ccccc32)C(F)(F)F)cc1F (stereo not shown) [1-[4-(3-Fluoro-4-methylphenyl)-2-hydroxy-4-methyl-2-trifluoromethylpentyl]-1H-quinolin-4-one]
CC(C)(CC(O)(Cn1ccc(=O)c2ccccc21)C(F)(F)F)c1cccc(F)c1 (stereo not shown) [1-[4-(3-Fluorophenyl)-2-hydroxy-4-methyl-2-trifluoromethylpentyl]-1H-quinolin-4-one]
CC(C)(CC(O)(Cn1ccc(=O)c2ccccc21)C(F)(F)F)c1cccc(C2OCCCO2)c1 (stereo not shown) [1-[4-(3-[1,3]Dioxan-2-ylphenyl)-2-hydroxy-4-methyl-2-trifluoromethylpentyl]-1H-quinolin-4-one]
